For the molecule `CNc1c([N+](=O)[O-])ccc(Cl)c1C#N`, the melting point fell in the range of 167 to 170 °C.
The same measure for `NC(=O)c1cnn2c(-c3ccccc3)ccnc12`: 236 to 238 °C; for `Cc1ccc(Oc2ccc(C)cc2CC(=O)O)cc1`: 101 to 104 °C; for `CC#CCOc1ccc(C=O)cc1OC`: 90 to 92 °C.
The same measure for `O=C(c1ccc([N+](=O)[O-])cc1)N1Cc2cccn2Cc2ccccc21`: 188 to 190 °C; for `CC(=O)NC[C@H]1CN(c2ccc(N3CCC(n4cccc4)CC3)c(F)c2)C(=O)O1`: 208 to 210 °C.
Consider `COC(=O)CS(=O)(=O)c1ccccc1C(=O)OC`, for which the melting point fell in the range of 102 to 103 °C.
Next, `Cc1cc(=O)c(OCc2ccccc2)c(C(=O)NC2CCCCC2)o1`: 118 to 120 °C; `Clc1ccc(C(Cl)c2cc3cc(Br)ccc3o2)cc1` (stereo unspecified): 83 to 85 °C.
Next, `Cc1ccc2c(c1)-c1nn(-c3ccc(Cl)cc3)c(=O)cc1CS2`: 200 to 206 °C; `Cc1cncc(C)c1-c1c(C)cc(C(C#N)C#N)cc1C`: 58 to 60 °C.
The same measure for `CCC1(CC)NC(=O)Oc2ccc(-c3cccc(Cl)c3)cc21`: 150 to 151 °C; for `Cc1cc(OC(F)(F)C(F)Cl)ccc1NC(=O)CCCC=C(F)F` (stereo unspecified): 59 to 60 °C; for `COC(=O)c1cccc(-n2cnc3cc(-c4ccno4)ccc32)c1`: 190 to 191 °C.
Molecule `COc1ccc(N2CCC(C(N)=O)CC2)cc1` gave a melting point of 178 to 181 °C.
The same measure for `CCCN1C(=O)N2C[C@@H](Cc3ccccc3)N=C2c2c1nc(Br)n2Cc1ccccc1`: 200 to 206 °C; for `CC(=O)N1c2cscc2C(=O)N(C)c2ccccc21`: 197 to 199 °C.
The same measure for `Cc1nc(N2CCN(Cc3ccc(Cl)cc3)C2=O)sc1C(N)=O`: > 200 °C; for `N#Cc1cccc(C[C@H](N)C(=O)O)c1`: 248 to 250 °C.
The same measure for `CNN(NC)C(=O)Nc1cccc2c1C(=O)c1c-2n[nH]c1-c1ccc(C)s1`: > 280 °C; for `COc1ccc2c(c1)C(=NOCCN1CCCC1)c1c-2cnc2ccccc12`: 85 to 86 °C.
The molecule `N#Cc1ccc(C(=O)CC2C=COc3ccccc32)cc1` (stereo unspecified) came in with a melting point of 111 °C.
Next, `COc1cc(-c2ccsc2)cc2oc(=O)c(C)c(C)c12`: 158 to 160 °C.
Next, `COC(=O)C(O)c1ccccc1Nc1c(Cl)cccc1Cl` (stereo unspecified): 123 to 124 °C; `N#Cc1cc(-c2ccccc2F)[nH]c1Cl`: 218 to 220 °C; `Cc1cc(O)cnc1Cl`: 126 to 128 °C.
In turn, `CS(=O)(=O)c1ccc(-c2cnn(-c3ccccc3F)c(=O)c2-c2ccc(F)cc2)cc1` gave a melting point of 96 to 103 °C.
The same measure for `COC(=O)C#CC(=O)c1ccc(Cl)cc1`: 49 to 50 °C.
Next, `CCOP(=O)(Cc1ccc(NC(=O)/C=C/c2c(C)noc2-c2ccccc2)cc1)OCC`: 155 to 156 °C; `CC(c1oc2ccccc2c(=O)c1-c1cccc(F)c1)n1nc(-c2cnc(N)nc2)c2c(N)ncnc21` (stereo unspecified): 264 to 268 °C.
In the case of `Cc1sc(S(C)=O)nc1-c1ccccc1` (stereo unspecified), the melting point was 96 to 97 °C.
The same measure for `C=C1CN(Cc2ccc(C(=O)Nc3ccccc3N)cc2)C(CC(=O)O)c2ccccc21` (stereo unspecified): > 230 °C.
Next, `COc1ccc(C(=O)Nc2ccc(F)cc2)cc1NC(=S)Nc1cccc(C(=O)O)c1`: 218 to 220 °C.
The same measure for `COc1ccc(C2=C(c3ccc(OC4CCCCO4)cc3)CCCc3cc(OC4CCCCO4)ccc32)cc1` (stereo unspecified): 160 to 161 °C; for `COc1ccc(C2CCCCC2)cc1-c1csc(NC(=O)C2CCN(C(=O)OC(C)(C)C)CC2)n1`: 193 °C; for `CCCCc1nc2ccn(Cc3ccc(N)cc3)c(=O)c2n1Cc1ccc(-c2ccccc2C#N)cc1`: 223 °C.
On to `NS(=O)(=O)c1ccc(-c2cc(F)c(F)cc2-c2ccc3c(c2)OCCO3)cc1`, for which the melting point fell in the range of 107 to 108 °C.
Molecule `C[C@@H]1OC(=O)[C@@H](NC(=O)OC(C)(C)C)COC[C@H](Cc2ccccc2)[C@H]1OCCC(=O)N(C)C` showed a melting point of 142 to 143 °C.
The same measure for `Cc1noc(NS(=O)(=O)c2ccccc2-c2ccccc2)c1Br`: 145 to 147 °C; for `COC(=O)C(C)Oc1ccc([N+](=O)[O-])cc1` (stereo unspecified): 79 to 80 °C; for `COc1cc2c(Nc3ccc(Cl)cc3F)ncnc2cc1OCc1ccnc(C#N)c1`: 209 to 213 °C.
Next, `CCC(=O)CCC(=O)c1ccc(F)cc1`: 56 to 57 °C; `COCc1cc2c(Nc3cccc(Cl)c3)ncnc2[nH]1`: 226 to 230 °C; `NC(=O)CC[C@@H](CF)NC(=O)OCc1ccccc1`: 154 to 157 °C.
Next, `O=C(Nc1cccc(S(=O)(=O)Nc2ccccc2)c1)c1cnn2c(C(F)F)cc(-c3ccc(C(F)(F)F)cc3)nc12`: 228 °C.
As for `NS(=O)(=O)c1cc2[nH]c(CCl)nc2cc1Cl`, the melting point was 296 to 301 °C.
Next, `COc1cc(N)c(Cl)cc1C(=O)NC1C=NN(C)C1` (stereo unspecified): 173 to 175 °C; `CCNc1nc(Nc2ccccc2)ncc1CO`: 174 to 176 °C; `CC(C)c1nc(CC(=O)O)n(C)c1Sc1cc(Cl)cc(Cl)c1`: 118 °C.
For `CCn1cc(C2(c3cccc(-c4cccnc4F)c3)N=C(N)N(C)C2=O)cc1CO` (stereo unspecified), the melting point fell in the range of 170 to 172 °C.
Next, `Cc1nc2c([nH]1)N(Cc1ccc(Cl)cc1)C1=NC(C)CN1C2=O` (stereo unspecified): 290 to 291 °C; `Cc1ccc2[nH]ncc2c1N`: 197 to 200 °C.
Next, `CC1N=C(c2ccccc2F)c2cc(Br)ccc2NC1=O` (stereo unspecified): 183 to 185 °C; `COC(=O)c1ccc(OCCCCl)cc1`: 56.5 to 59 °C.
Next, `CCOc1cc(I)cc(OCC)c1OCC`: 44 to 46 °C.
`Cc1ccc(-c2ncc3c(n2)CCCC3)nc1-c1ccc(C#N)cc1` came in with a melting point of 178 to 182 °C.
The same measure for `N#Cc1cc(N)ccc1N1CCC(N2CCC(O)CC2)CC1`: 175 °C.
The same measure for `COc1ccc(C(=O)NCCCC(=O)O)cc1OCc1ccccc1`: 156 to 158 °C; for `O=[N+]([O-])c1ccc(C(Nc2ccccc2)P(=O)(Oc2ccccc2)Oc2ccccc2)cc1` (stereo unspecified): 158 to 160 °C.
The same measure for `CC(=O)N(C)Cc1ccc(F)cc1`: 48 to 54 °C.
In the case of `CCOC(=O)c1nnc(-c2ccc(OCC)cc2)o1`, the melting point stood at 93 °C.
Next, `COc1ccc(C=CC(=O)Nc2cnc3cc(C)c(C)cc3c2-c2ccccc2Cl)cc1OC`: 210 to 211 °C; `O=C(O)CSCCCCCn1nc(-c2ccccc2)c(-c2ccccc2)c1-c1ccccc1`: 140 to 142 °C; `O=C(O)C(=O)c1ccc(OCC#Cc2ccccc2)cc1`: 97 to 99 °C.
Next, `CCOc1cc(C(CC#N)N2C(=O)c3cccc([N+](=O)[O-])c3C2=O)ccc1OC` (stereo unspecified): 156 to 157 °C; `CSc1nc2ccnn2c(OCc2ccccc2)c1C#N`: 194 °C.

As usually defined, the melting point is the temperature of the solid-liquid transition.

(Values after a melting point compilation (Tetko et al.; mined from patent text by program, amines drawn as free bases though some values may be those of a salt).)
